Assay results published in publication PMC3726612, “Amiodarone Inhibits Apamin-Sensitive Potassium Currents” (PLoS ONE, 2013).

How the values were obtained:
Format in all cases: cell-based
[1] = biological target: T1, human small conductance Ca^2+-activated K^+ channel, subfamily N, member 2 (SK2) (Homo sapiens, UniProt Q9H2S1); experiment: whole-cell patch clamp, HEK-293 cells expressing SK2; % inhibition at […]; settings: HEK293
T1 construct: gene KCNN2; transcript variant 1 (NM_021614.2)

[2] = biological target: T1, human small conductance Ca^2+-activated K^+ channel, subfamily N, member 2 (SK2); experiment: whole-cell patch clamp, HEK-293 cells transiently expressing SK2; % inhibition at […]; settings: HEK293
[3] = biological target: T1, human small conductance Ca^2+-activated K^+ channel, subfamily N, member 2 (SK2); experiment: whole-cell patch clamp, HEK-293 cells expressing SK2; % inhibition at […]; settings: HEK293; read-out: % inhibition at 500 nM
[4] = biological target: T1, human small conductance Ca^2+-activated K^+ channel, subfamily N, member 2 (SK2); experiment: whole-cell patch clamp, HEK-293 cells transiently expressing SK2

T1 sequence (Q9H2S1 whole entry): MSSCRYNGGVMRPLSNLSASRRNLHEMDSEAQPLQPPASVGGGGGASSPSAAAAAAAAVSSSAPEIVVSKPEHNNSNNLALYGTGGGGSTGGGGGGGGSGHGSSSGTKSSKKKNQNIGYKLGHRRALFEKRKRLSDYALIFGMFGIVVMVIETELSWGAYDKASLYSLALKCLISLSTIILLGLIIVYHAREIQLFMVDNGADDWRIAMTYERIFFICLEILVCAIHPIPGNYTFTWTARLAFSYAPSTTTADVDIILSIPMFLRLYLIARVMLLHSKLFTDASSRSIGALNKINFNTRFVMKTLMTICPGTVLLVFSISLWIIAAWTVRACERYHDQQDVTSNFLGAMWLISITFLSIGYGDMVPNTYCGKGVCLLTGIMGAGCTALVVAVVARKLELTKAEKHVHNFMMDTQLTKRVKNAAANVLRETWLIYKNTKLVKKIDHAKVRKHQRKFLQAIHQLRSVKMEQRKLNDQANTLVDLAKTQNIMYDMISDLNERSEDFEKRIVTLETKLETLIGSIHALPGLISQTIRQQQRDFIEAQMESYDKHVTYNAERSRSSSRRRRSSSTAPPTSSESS

Molecule `CCS(=O)(=O)N(C)[C@H]1c2cc(C#N)ccc2OC(C)(C)[C@@H]1O` (racemic) [chromanol 293B] has an inhibition at 100 µM [1] of 38.2 ± 15%.
With `CCCCc1oc2ccccc2c1C(=O)c1cc(I)c(OCCNCC)c(I)c1` [DEA, desethylamiodarone] the inhibition at 20 µM [2] was 79%.
With `Cc1cccc(CCN2CCC(C(=O)c3ccc(NS(C)(=O)=O)cc3)CC2)n1` [E-4031] the inhibition at 0.5 µM [3] was 37.6 ± 14.9%.
Molecule `CCCCc1oc2ccccc2c1C(=O)c1cc(I)c(OCCN(CC)CC)c(I)c1` [amiodarone] has an IC50 [4] of 2.67 ± 0.25 µM.
